Laboratory results taken from article PMC12251482, “Floridoside Phosphotriester Derivatives: Synthesis and Inhibition of Human Neutrophils’ Oxidative Burst” (Molecules, 2025).

How the values were obtained:
human neutrophils = assay: Neutrophils' apoptosis versus necrosis, Annexin V/PI flow cytometry; format: cell-based; conditions: for Cytotoxicity in neutrophils: 45 min; for Induction of late apoptosis in neutrophils: Figure S154
Procedure: The effect of the compounds under study on neutrophil viability was evaluated using flow cytometry. This assessment involved staining with Annexin V (AV) and propidium iodide (PI) from the BD Pharmingen™ FITC Annexin V Apoptosis Detection Kit, following the manufacturer’s protocol. […] Afterwards, the content of each well was transferred to a conical microtube and centrifuged at 400× g, at 20 °C, for 5 min. The neutrophils’ pellets were resuspended in PBS and centrifuged again under the previous conditions. The supernatant was removed, and the solution of Annexin V and PI from the kit was added, resuspending the pellet. The neutrophils were incubated in the dark at room temperature for 15 min and then diluted (dilution factor = 6) with the diluted binding buffer. […] In the flow cytometer, the fluorescence signal of at least 10,000 neutrophils per sample was collected in logarithmic mode and followed in channels 1 and 3. A polygon gate, corresponding to the neutrophil’s population, was drawn according to the light-scattering properties of neutrophils in a forward versus scatter plot. Thus, debris and other blood cells were unaccounted for in the samples. The green fluorescence corresponding to Annexin V was monitored in channel 1 and plotted as a histogram of FL1 staining, whereas the fluorescence corresponding to PI was monitored in channel 3 and plotted in the same histogram as FL3 staining. Neutrophils’ cell death was expressed as a relative percentage of viable, apoptotic, late apoptotic, and necrotic cells compared to a negative control (untreated cells).
The eﬀect of the compounds under study on neutrophil viability was evaluated using ﬂow cytometry.
This assessment involved staining with Annexin V (AV) and propidium iodide (PI) from the BD Pharmingen™ FITC Annexin V Apoptosis Detection Kit, following the manufacturer's protocol. Neutrophils (1 x10^6 cells/mL) were incubated in a 24-well plate in the dark at 37 °C for 45 minutes with the positive control (Triton X-100, […]
Afterwards, the content of each well was transferred to a conical microtube and centrifuged at 400g, at 20 °C, for 5 minutes. The neutrophils’ pellets were resuspended in PBS and centrifuged again under the previous conditions. The supernatant was removed, and the solution of Annexin V and PI from the kit was added, resuspending the pellet. The neutrophils were incubated in the dark at room temperature for 15 minutes and then diluted (dilution factor = 6) with the diluted binding buﬀer. The measurements were performed in a n Accuri C6 ﬂow cytometer (BD, Becton, Dickinson and Company, Franklin Lakes, NJ, USA), and the results were treated with BD Accuri™ C6 software. In the ﬂow cytometer, the ﬂuorescence signal of at least 10,000 neutrophils per sample was collected in logarithmic mode and followed in channels 1 and 3. A polygon gate, corresponding to the neutrophil’s population, was drawn according to the light-scattering properties of neutrophils in a forward vs scatter plot. Thus, debris and other blood cells were unaccounted for in the samples.
The green ﬂuorescence corresponding to Annexin V was monitored in channel 1 and plotted as a histogram of FL1 staining, whereas the ﬂuorescence corresponding to PI was monitored in channel 3 and plotted in the same histogram as FL3 staining. Neutrophils’ cell death was expressed as a relative percentage of viable, apoptotic, late apoptotic, and necrotic cells compared to a negative control (untreated cells). […]

[1] = system: PMA-stimulated human neutrophils; assay: H2O2 generation by PMA-stimulated neutrophils, oxidation of Amplex Red; format: cell-based; conditions: PMA 160 nM, mean ± SEM
Procedure: Amplex Red is a highly sensitive and chemically stable fluorescent probe for the extracellular detection of H2O2 [82]. The methodology used previously for monitoring the modulation of the oxidative burst was adapted. In a 96-well plate, neutrophils (2 × 10^6 cells/mL) were incubated in the dark at 37 °C for 5 min with Amplex Red (25 μM), horseradish peroxidase (0.25 U/mL), and the compounds under study (10–100 μM) or DMSO (4%). Quercetin (0.3–5.0 μM) and DPI (0.01–10 μM) were used as controls. After incubation, PMA (160 nM) was added, and the fluorescence (excitation at 530 nm and emission at 590 nm) was measured in a microplate reader (Synergy HT, BioTek Instruments, Inc., Winooski, VT, USA). Obtained values correspond to the slope measured between 5 and 10 min. Effects are expressed as the percentage inhibition of Amplex Red oxidation. The results obtained represent at least three independent experiments. […] 3.4.3 Oxidation of Amplex Red
Amplex Red is a highly sensitive and chemically stable ﬂuorescent probe for the extracellular detection of H2O2 [16]. The methodology used previously for monitoring the modulation of the oxidative burst was adapted.
In a 96-well plate, neutrophils (2 x 10^6 cells/mL) were incubated in the dark at 37 °C for 5 minutes with Amplex Red (25 µM), horseradish peroxidase (0.25 U/mL) , and the compounds under study (10 - 100 µM) or DMSO (4%). Quercetin (0.3 - 5.0 µM) and DPI (0.01 - 10 µM) were used as positive controls for inhibition. After incubation, PMA (160 nM) was added, and the ﬂuorescence (excitation at 530 nm and emission at 590 nm) was measured in a microplate reader (Synergy HT, BioTek Instruments, Inc., Winooski, VT, USA). Obtained values correspond to the slope measured between 5 and 10 minutes. Eﬀects are expressed as the percentage inhibition of Amplex Red oxidation. The obtained results represent at least three independent experiments.
GraphPad Prism 6 software was used to plot the inhibition percentage versus compound concentration curves, enabling the determination of the concentration required to achieve 50% inhibition (IC50). GraphPad Prism 6 software was also used to perform all statistical analyses.
[…] was estimated by applying the one-way analysis (ANOVA), followed by the Bonferroni’s multiple comparisons test. In all cases, p-values < 0.05 were considered statistically signiﬁcant. The results are expressed as mean ± standard error of the mean (SEM).

[2] = tested concentrations, up to 100 μM

Compound	Cytotoxicity in neutrophils (human neutrophils; 50 μM)	Cytotoxicity in neutrophils (human neutrophils; [2])	Amplex Red: highest obtained % of inhibition ([1]; at 50 µM)	Cytotoxicity in neutrophils (human neutrophils; 25 μM)	Induction of late apoptosis in neutrophils (human neutrophils; 50 μM)	inhibition at 25 µM ([1]; Homo sapiens, Neutrophil, at 25 µM, read-out: Amplex Red: highest obtained % of inhibition)	Amplex Red: highest obtained % of inhibition ([1]; at 25 µM)	inhibition at 50 µM ([1]; Homo sapiens, Neutrophil, at 50 µM, read-out: Amplex Red: highest obtained % of inhibition)
3-Hydroxy-2-(galactopyranosyl)propyl dodecanoate [Compound 1e]	no cytotoxicity	non-cytotoxic	<20% ^50µM					
CCCCCCCCCCCC(=O)OCC(CO)OC1OC(COP(=O)(OCCN)OCCN)C(O)C(O)C1O (stereo not shown) [Compound 1h, 2-(6-(bis(2-Aminoethoxy))phosphoryl)galactopyranosyl-3-hydroxypropyl dodecanoate]	cytotoxic effects			did not exhibit significant cytotoxicity	induce late apoptosis	< 20%		
3-Hydroxy-2-galactopyranosylpropyl dioctyl phosphate [Compound 1b]	cytotoxic effects			did not exhibit significant cytotoxicity	induce late apoptosis		<20% ^25µM	
OCC(CO)OC1OC(CO)C(O)C(O)C1O [Compound 1a, 2-O-D-(galactopyranosyl)glycerol]		no cytotoxic activity						< 20%
